According to US9394297B2, “Amides as pim inhibitors” (AMGEN INC., priority 2012, dated 2016):
Read-outs that look alike come from different tables or passages of the source.

Experiments:
[1] = molecular target: Pim-1 (Homo sapiens (Human), UniProt P11309); experiment: Pim-Mn enzyme assay (HTRF, 384-well), Pim-1; format: biochemical; settings: read-out: Pim-1-Mn IC50 IP
[2] = molecular target: Pim-2 (Homo sapiens (Human), UniProt Q9P1W9); experiment: Pim-Mn enzyme assay (HTRF, 384-well), Pim-2; format: biochemical; settings: Pim-2 enzyme 0.5 pM, ATP 1.5 μM, BAD (S112) 0.5 μM, HTRF, 22-point curve; read-out: Pim-2-Mn IC50 IP
[3] = test system: KMS-12-BM cell lines; experiment: KMS12 #2 flow cytometry assay (phospho-BAD Ser112); format: cell-based; settings: Homo sapiens, 110 min, read-out: KMS-12-Flow IC50 IP
[4] = Pim-1 enzyme 5 pM, ATP 1.5 μM, BAD (S112) 0.5 μM, HTRF, 22-point curve
[5] = KMS-12-BM cells, pBAD Ser112 by flow cytometry, 110 min with compound

Chain of Pim-1 (P11309 whole entry): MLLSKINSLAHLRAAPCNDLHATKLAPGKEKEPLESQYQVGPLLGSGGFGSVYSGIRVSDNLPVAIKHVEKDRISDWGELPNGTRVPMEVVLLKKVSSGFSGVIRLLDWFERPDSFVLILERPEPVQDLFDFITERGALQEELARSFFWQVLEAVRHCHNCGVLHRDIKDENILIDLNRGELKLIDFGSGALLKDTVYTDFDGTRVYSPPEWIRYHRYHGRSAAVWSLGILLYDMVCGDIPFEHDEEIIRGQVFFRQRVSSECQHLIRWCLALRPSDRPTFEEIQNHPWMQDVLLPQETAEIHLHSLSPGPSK
Chain of Pim-2 (Q9P1W9 whole entry): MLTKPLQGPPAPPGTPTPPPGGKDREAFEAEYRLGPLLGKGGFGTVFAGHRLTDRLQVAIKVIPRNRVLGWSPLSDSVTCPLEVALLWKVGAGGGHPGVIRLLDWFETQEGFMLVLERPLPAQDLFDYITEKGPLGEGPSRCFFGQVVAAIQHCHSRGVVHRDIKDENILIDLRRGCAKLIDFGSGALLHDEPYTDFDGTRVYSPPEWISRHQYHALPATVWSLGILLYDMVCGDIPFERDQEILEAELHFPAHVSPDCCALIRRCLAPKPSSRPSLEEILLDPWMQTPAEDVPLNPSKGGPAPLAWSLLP

## Cc1nc2cccc(-c3cc4c([nH]3)[C@@H](CO)NC4=O)c2nc1NC1(C)CC1 [Example 361, (S)-6-(hydroxymethyl)-2-(2-methyl-3-((1-methylcyclopropyl)amino)quinoxalin-5-yl)-5,6-dihydropyrrolo[3,4-b]pyrrol-4 (1H)-one]
[1]; [4]
  IC50: 0.414 nM
[2]
  IC50: 0.53 nM
[3]; [5]
  IC50: 67.1 nM

## Cc1nc2cccc(-c3cc(C(N)=O)n[nH]3)c2nc1NC(C)(C)C [Example 467, 5-(3-(tert-butylamino)-2-methylquinoxalin-5-yl)-1H-pyrazole-3-carboxamide]
[1]; [4]
  IC50: 21.6 nM
[2]
  IC50: 8.9 nM
[3]; [5]
  IC50: 3880 nM

## C[C@H](O)c1nc2cccc(-c3cc4c([nH]3)CCNC4=O)c2nc1NC(C)(C)C [Example 310, (S)-2-(3-(tert-butylamino)-2-(1-hydroxyethyl)quinoxalin-5-yl)-6,7-dihydro-1H-pyrrolo[3,2-c]pyridin-4(5H)-one]
[1]; [4]
  IC50: 4 nM
[2]
  IC50: 3 nM
[3]; [5]
  IC50: 344 nM

## Cc1nc2cccc(-c3cc4c([nH]3)C3(CCOCC3)NC4=O)c2nc1NC(C)(C)C [Example 409, 2′-(3-(tert-butylamino)-2-methyl-5-quinoxalinyl)-2,3,5,6-tetrahydro-1′H-spiro[pyran-4,6′-pyrrolo[3,4-b]pyrrol]-4′(5′H)-one]
[1]; [4]
  IC50: 31.7 nM
[2]
  IC50: 62.6 nM
[3]; [5]
  IC50: 5760 nM

## Cc1nc2cccc(-c3cc4c([nH]3)CCNC4=O)c2nc1N[C@H]1C[C@H](O)C1 [Example 442, 2-(3-((trans-3-Hydroxycyclobutyl)amino)-2-methylquinoxalin-5-yl)-6,7-dihydro-1H-pyrrolo[3,2-c]pyridin-4(5H)-one]
[1]; [4]
  IC50: 3.4 nM
[2]
  IC50: 1.73 nM
[3]; [5]
  IC50: 527 nM

## Cc1nc2ccc(F)c(-c3cc4c([nH]3)CCNC4=O)c2nc1NC1(C)CC1 [Example 369, 2-(6-fluoro-2-methyl-3-((1-methylcyclopropyl)amino)quinoxalin-5-yl)-6,7-dihydro-1H-pyrrolo[3,2-c]pyridin-4(5H)-one 2,2,2-trifluoroacetate]
[1]; [4]
  IC50: 0.184 nM
[2]
  IC50: 0.162 nM
[3]; [5]
  IC50: 11.5 nM

## Cc1nc2cccc(-c3cc4c([nH]3)C(CO)NC4=O)c2nc1NC1(C)CC1 (stereo not drawn) [Example 360, 6-(hydroxymethyl)-2-(2-methyl-3-((1-methylcyclopropyl)amino)quinoxalin-5-yl)-5,6-dihydropyrrolo[3,4-b]pyrrol-4 (1H)-one]
[1]; [4]
  IC50: 1.42 nM
[2]
  IC50: 1.37 nM
[3]; [5]
  IC50: 88.4 nM

## Cc1nc2cccc(-c3cc4c([nH]3)CCNC4=S)c2nc1NC(C)(C)C [Example 292, 2-(3-(tert-butylamino)-2-methylquinoxalin-5-yl)-6,7-dihydro-1H-pyrrolo[3,2-c]pyridine-4(5H)-thione]
[1]; [4]
  IC50: 1.61 nM
[2]
  IC50: 2.54 nM
[3]; [5]
  IC50: 657 nM

## Cc1nc2cccc(-c3cc4c([nH]3)CCN(CO)C4=O)c2nc1NC(C)(C)C [Example 299, 2-(3-(tert-butylamino)-2-methylquinoxalin-5-yl)-5-(hydroxymethyl)-6,7-dihydro-1H-pyrrolo[3,2-c]pyridin-4(5H)-one]
[1]; [4]
  IC50: 7 nM
[2]
  IC50: 9 nM
[3]; [5]
  IC50: > 40000 nM

## Cc1nc2cccc(-c3cc4c([nH]3)C(C)N(C(=O)OC(C)(C)C)C4=O)c2nc1NC(C)(C)C (stereo not drawn) [Example 316, tert-butyl 2-(3-(tert-butylamino)-2-methylquinoxalin-5-yl)-6-methyl-4-oxo-4,6-dihydropyrrolo[3,4-b]pyrrole-5(1H)-carboxylate]
[1]; [4]
  IC50: 36 nM
[2]
  IC50: 75 nM
[3]; [5]
  IC50: 21500 nM

## COCCn1c(NC(C)(C)C)nc2c(-c3cc4c([nH]3)CNC4=O)cccc2c1=O [Example 458, 2-(tert-butylamino)-3-(2-methoxyethyl)-8-(4-oxo-1,4,5,6-tetrahydropyrrolo[3,4-b]pyrrol-2-yl)-4(3H)-quinazolinone]
[1]; [4]
  IC50: 0.325 nM
[2]
  IC50: 0.218 nM
[3]; [5]
  IC50: 54.6 nM

## COC1=NCCc2[nH]c(-c3cccc4nc(C)c(NC(C)(C)C)nc34)cc21 [Example 351, N-tert-butyl-8-(4-methoxy-6,7-dihydro-1H-pyrrolo[3,2-c]pyridin-2-yl)-3-methyl-2-quinoxalinamine]
[1]; [4]
  IC50: 9.23 nM
[2]
  IC50: 8.9 nM
[3]; [5]
  IC50: 2350 nM

## CC(C)(C)Nc1nc2c(-c3cc4c([nH]3)CCNC4=O)cccc2nc1N [Example 304, 2-(2-amino-3-(tert-butylamino)quinoxalin-5-yl)-6,7-dihydro-1H-pyrrolo[3,2-c]pyridin-4(5H)-one]
[1]; [4]
  IC50: 0.791 nM
[2]
  IC50: 0.429 nM
[3]; [5]
  IC50: 87.6 nM

## Cc1nc2cccc(-c3cc4c(=O)[nH]ncc4[nH]3)c2nc1NC(C)(C)C [Example 423, 2-(3-(tert-butylamino)-2-methylquinoxalin-5-yl)-1H-pyrrolo[2,3-d]pyridazin-4(5H)-one]
[1]; [4]
  IC50: 5.44 nM
[2]
  IC50: 3.71 nM
[3]; [5]
  IC50: 378 nM

## CN(c1ncc2cccc(-c3cc4c([nH]3)CCNC4=O)c2n1)C(C)(C)C [Example 377, 2-(2-(tert-butyl(methyl)amino)quinazolin-8-yl)-6,7-dihydro-1H-pyrrolo[3,2-c]pyridin-4(5H)-one]
[1]; [4]
  IC50: 2.43 nM
[2]
  IC50: 3.32 nM
[3]; [5]
  IC50: 1630 nM

## Cc1nc2ccc(F)c(-c3cc4c([nH]3)[C@H]([C@@H](C)O)NC4=O)c2nc1NC1CC1 [Example 352, (6R)-2-(3-(cyclopropylamino)-6-fluoro-2-methyl-5-quinoxalinyl)-6-((1R)-1-hydroxyethyl)-5,6-dihydropyrrolo[3,4-b]pyrrol-4(1H)-one]
[1]; [4]
  IC50: 1.59 nM
[2]
  IC50: 2.45 nM
[3]; [5]
  IC50: 188 nM

## Cc1nc2cccc(-c3cc4c([nH]3)[C@@H](C)NC4=O)c2nc1NC(C)C [Example 287, (6R)-6-methyl-2-(2-methyl-3-((1-methylethyl)amino)-5-quinoxalinyl)-5,6-dihydropyrrolo[3,4-b]pyrrol-4(1H)-one]
[1]; [4]
  IC50: 1.78 nM
[2]
  IC50: 1.64 nM
[3]; [5]
  IC50: 75.8 nM

## Cc1nc2cccc(-c3c[nH]c(C(N)=O)c3)c2nc1NC(C)(C)C [Example 420, 4-(3-(tert-butylamino)-2-methyl-5-quinoxalinyl)-1H-pyrrole-2-carboxamide]
[1]; [4]
  IC50: 26.5 nM
[2]
  IC50: 34.8 nM
[3]; [5]
  IC50: 9120 nM

## Cc1nc2cccc(-c3cc4c([nH]3)[C@H](CO)NC4=O)c2nc1NC1(C)CC1 [Example 362, (R)-6-(hydroxymethyl)-2-(2-methyl-3-((1-methylcyclopropyl)amino)quinoxalin-5-yl)-5,6-dihydropyrrolo[3,4-b]pyrrol-4 (1H)-one]
[1]; [4]
  IC50: 1.73 nM
[2]
  IC50: 1.82 nM
[3]; [5]
  IC50: 251 nM

## Cc1nc2ccc(F)c(-c3cc4c([nH]3)CCNC4=O)c2nc1NC(C)(C)CO [Example 370, 2-(6-fluoro-3-((1-hydroxy-2-methylpropan-2-yl)amino)-2-methylquinoxalin-5-yl)-6,7-dihydro-1H-pyrrolo[3,2-c]pyridin-4(5H)-one]
[1]; [4]
  IC50: 0.992 nM
[2]
  IC50: 0.272 nM
[3]; [5]
  IC50: 143 nM

## Cc1nc2cccc(-c3cc4c([nH]3)CCNC4=O)c2nc1NC(C)c1ccccn1 (stereo not drawn) [Example 321, 2-(2-methyl-3-((1-(pyridin-2-yl)ethyl)amino)quinoxalin-5-yl)-6,7-dihydro-1H-pyrrolo[3,2-c]pyridin-4(5H)-one]
[1]; [4]
  IC50: 98.6 nM
[2]
  IC50: 156 nM
[3]; [5]
  IC50: > 40000 nM

## Cc1nc2cccc(-c3cc4c([nH]3)CNC4=O)c2nc1NC1CC1 [Example 363, 2-(3-(cyclopropylamino)-2-methylquinoxalin-5-yl)-5,6-dihydropyrrolo[3,4-b]pyrrol-4(1H)-one]
[1]; [4]
  IC50: 0.345 nM
[2]
  IC50: 0.297 nM
[3]; [5]
  IC50: 142 nM

## Cc1nc2cccc(-c3cc4c([nH]3)[C@H](C)NC4=O)c2nc1NC1(C)CC1 [Example 328, (6S)-6-methyl-2-(2-methyl-3-((1-methylcyclopropyl)amino)-5-quinoxalinyl)-5,6-dihydropyrrolo[3,4-b]pyrrol-4(1H)-one]
[1]; [4]
  IC50: 0.195 nM
[2]
  IC50: 0.201 nM
[3]; [5]
  IC50: 46 nM

## Cc1nc2cccc(-c3cc4c([nH]3)CCNC4=O)c2nc1NC(C)(C)CN1CCOCC1 [Example 457, 2-(3-((1,1-dimethyl-2-(4-morpholinyl)ethyl)amino)-2-methyl-5-quinoxalinyl)-1,5,6,7-tetrahydro-4H-pyrrolo[3,2-c]pyridin-4-one]
[1]; [4]
  IC50: 35.7 nM
[2]
  IC50: 134 nM
[3]; [5]
  IC50: 3490 nM

## Cc1nc2cccc(-c3cc4c([nH]3)CCNC4=O)c2nc1-c1ccccc1 [Example 424, 2-(2-Methyl-3-phenylquinoxalin-5-yl)-6,7-dihydro-1H-pyrrolo[3,2-c]pyridin-4(5H)-one]
[1]; [4]
  IC50: 82.4 nM
[2]
  IC50: 82.1 nM
[3]; [5]
  IC50: > 40000 nM

## Cc1nc2cccc(-c3cc4c([nH]3)C3(CC3)NC4=O)c2nc1NC1CC1 [Example 325, 2′-(3-(cyclopropylamino)-2-methyl-5-quinoxalinyl)-1′H-spiro[cyclopropane-1,6′-pyrrolo[3,4-b]pyrrol]-4′(5′H)-one]
[1]
  IC50: 0.293 nM
[2]
  IC50: 0.242 nM
[3]; KMS-12-BM
  IC50: 68.8 nM

## Cc1nc2cccc(-c3cc4c([nH]3)C(COCc3ccccc3)NC4=O)c2nc1NC1(C)CC1 (stereo not drawn) [Example 355, 6-((benzyloxy)methyl)-2-(2-methyl-3-((1-methylcyclopropyl)amino)quinoxalin-5-yl)-5,6-dihydropyrrolo[3,4-b]pyrrol-4 (1H)-one]
[1]
  IC50: 1.79 nM
[2]
  IC50: 1.86 nM
[3]; [5]
  IC50: 2430 nM

## Cc1nc2cccc(-c3cc4c([nH]3)C3(CC3)NC4=O)c2nc1NCC(F)F [Example 331, 2′-(3-((2,2-difluoroethyl)amino)-2-methylquinoxalin-5-yl)-1′H-spiro[cyclopropane-1,6′-pyrrolo[3,4-b]pyrrol]-4′(5′H)-one]
[1]; [4]
  IC50: 1.67 nM
[2]
  IC50: 1.12 nM
[3]; [5]
  IC50: 130 nM
